Experimental data published in ChEMBL document CHEMBL1201862, “PubChem BioAssay data set” (2004).
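In this assay, cells in 96-well plates receive the compound at five concentrations for 48 hours. Endpoints are linearly interpolated between the surrounding concentrations. At the GI50, growth is halved.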 Calls of active or inactive are those of the source. Rule as the data show it: active = GI50 up to about 1.1 µM and inactive = higher.

Legend:
Assay in all cases: growth of human tumour cells (NCI), 48 h
SF-295 = system: SF-295
BT-549 = system: BT-549
MOLT-4 = system: MOLT-4
MDA-MB-231 = system: MDA-MB-231
MCF7 = system: MCF7
SNB-75 = system: SNB-75
SF-539 = system: SF-539
CAKI-1 = system: CAKI-1
OVCAR-5 = system: OVCAR-5
SNB-19 = system: SNB-19
OVCAR-8 = system: OVCAR-8
786-0 = system: 786-0
UO-31 = system: UO-31
HCT-15 = system: HCT-15
DU-145 = system: DU-145
KM12 = system: KM12
SF-268 = system: SF-268
HOP-62 = system: HOP-62
SW-620 = system: SW-620
HCT-116 = system: HCT-116
SK-MEL-5 = system: SK-MEL-5
COLO 205 = system: COLO 205
HCC 2998 = system: HCC 2998
T47D = system: T47D
MDA-N = system: MDA-N
U-251 = system: U-251
NCI-H23 = system: NCI-H23
NCI/ADR-RES = system: NCI/ADR-RES
UACC-62 = system: UACC-62
IGROV-1 = system: IGROV-1
SR = system: SR
TK-10 = system: TK-10
SK-MEL-28 = system: SK-MEL-28
UACC-257 = system: UACC-257
OVCAR-4 = system: OVCAR-4
HT-29 = system: HT-29
RXF 393 = system: RXF 393
EKVX = system: EKVX
A549 = system: A549
SK-OV-3 = system: SK-OV-3
OVCAR-3 = system: OVCAR-3
SK-MEL-2 = system: SK-MEL-2
MDA-MB-435 = system: MDA-MB-435
LOX IMVI = system: LOX IMVI
NCI-H226 = system: NCI-H226
CCRF-CEM = system: CCRF-CEM
Malme-3M = system: Malme-3M
PC-3 = system: PC-3
NCI-H522 = system: NCI-H522
M14 = system: M14
A498 = system: A498
ACHN = system: ACHN
RPMI-8226 = system: RPMI-8226
HOP-92 = system: HOP-92
NCI-H460 = system: NCI-H460
SN12C = system: SN12C

SMILES: C/C(=N\Nc1nc2ccccc2s1)c1cc2ccccc2cn1
- GI50 (SF-295): 3.7 µM (inactive)
- GI50 (BT-549): 6.05 µM (inactive)
- GI50 (MOLT-4): 0.41 µM (active)
- GI50 (MDA-MB-231): 4.88 µM (inactive)
- GI50 (MCF7): 0.27 µM (active)
- GI50 (SNB-75): 3.24 µM (inactive)
- GI50 (SF-539): 3.83 µM (inactive)
- GI50 (CAKI-1): 3.03 µM (inactive)
- GI50 (OVCAR-5): 4.38 µM (inactive)
- GI50 (SNB-19): 13.6 µM (inactive)
- GI50 (OVCAR-8): 2.84 µM (inactive)
- GI50 (786-0): 2.52 µM (inactive)
- GI50 (UO-31): 1.48 µM (inactive)
- GI50 (HCT-15): 0.424 µM
- GI50 (DU-145): 3.85 µM (inactive)
- GI50 (KM12): 4.89 µM (inactive)
- GI50 (SF-268): 7.43 µM (inactive)
- GI50 (HOP-62): 3.2 µM (inactive)
- GI50 (SW-620): 3.95 µM (inactive)
- GI50 (HCT-116): 3.03 µM (inactive)
- GI50 (SK-MEL-5): 3.18 µM (inactive)
- GI50 (COLO 205): 1.52 µM (inactive)
- GI50 (HCC 2998): 7.76 µM (inactive)
- GI50 (T47D): 0.378 µM (active)
- GI50 (MDA-N): 8.69 µM (inactive)
- GI50 (U-251): 4.68 µM (inactive)
- GI50 (NCI-H23): 3.21 µM (inactive)
- GI50 (NCI/ADR-RES): 3.25 µM (inactive)
- GI50 (UACC-62): 3.51 µM (inactive)
- GI50 (IGROV-1): 1.61 µM (inactive)
- GI50 (SR): 2.41 µM (inactive)
- GI50 (TK-10): 3.94 µM (inactive)
- GI50 (SK-MEL-28): 6.3 µM (inactive)
- GI50 (UACC-257): 3.55 µM (inactive)
- GI50 (OVCAR-4): 1.75 µM (inactive)
- GI50 (HT-29): 3.31 µM (inactive)
- GI50 (RXF 393): 3.61 µM (inactive)
- GI50 (EKVX): 3.34 µM (inactive)
- GI50 (A549): 3.66 µM (inactive)
- GI50 (SK-OV-3): 3.15 µM (inactive)
- GI50 (OVCAR-3): 1.65 µM (inactive)
- GI50 (SK-MEL-2): 6.79 µM (inactive)
- GI50 (MDA-MB-435): 5.24 µM (inactive)
- GI50 (LOX IMVI): 2.49 µM (inactive)
- GI50 (NCI-H226): 1.73 µM (inactive)
- GI50 (CCRF-CEM): 2.81 µM (inactive)
- GI50 (Malme-3M): 4.61 µM (inactive)
- GI50 (PC-3): 5.42 µM (inactive)
- GI50 (NCI-H522): 4.78 µM (inactive)
- GI50 (M14): 4.01 µM (inactive)
- GI50 (A498): 10.9 µM (inactive)
- GI50 (ACHN): 2.88 µM (inactive)
- GI50 (RPMI-8226): 3.21 µM (inactive)
- GI50 (HOP-92): 8.63 µM (inactive)
- GI50 (NCI-H460): 3.56 µM (inactive)
- GI50 (SN12C): 4.29 µM (inactive)
